In US20120016014A1, “BENZOTHIOPHENE CARBOXAMIDE COMPOUNDS, COMPOSITION AND APPLICATIONS THEREOF” (INDIAN INSTITUTE OF SCIENCE, priority 2010, published 2012):
Values joined by “and” are separate entries in the source; they are usually repeats but may differ in a detail not shown here. Identical values can stand only once. Like-named read-outs stand apart in the source and are kept apart here.

Tests used:
[1] = system: blood-stage P. berghei ANKA; assay: Experimental cerebral malaria in C57BL/6 mice; assay type: in vivo; settings: for Relative efficacy in the route of administration study: 5 mg/kg body weight, 6 days treatment; for Mean Survival Days (Observed for 25 days): 5 mg/kg body weight daily for six days, C57BL/6 mice
Procedure: C57BL/6 mice were infected with blood-stage P. berghei ANKA as discussed in the experimental section. After 24 hours of infection mice were treated intravenously with various doses of inhibitors. It was observed that all control mice developed hypothermia by day 2, ataxia and convulsions by day 3 and died by day 6, whereas inhibitor treated groups had considerably higher longevity (11-24 days). Though each group of mice developed hypothermia by day 4, convulsions and ataxia development were delayed in case of treated mice. […] The mice treated with 2.5 mg/kg body weight survived for 18 days. Even at or below 1 mg/kg body weight of inhibitor dose, the mice survived for 11 days, but paralysis and ataxia development occurred on Day 7.
[…]. The mice were treated for 6 days. […]. Chloroquine was used as the control drug. […].
Therefore, compounds 10 and 11 were also administered at 5 mg/Kg body weight. The compounds were administered through intraperitoneal, peroral, subcutaneous and intravenous routes. Compound 10 and 11 were administered once daily for 6 days. […]. The mean survival days for this treatment group was 16 (FIG. 12c and Table III). […]. Chloroquine was used as the control drug.

[2] = system: Plasmodium falciparum 3D7; assay: In vitro inhibition of P. falciparum 3D7 blood-stage parasites; assay type: cell-based; settings: for IC50: read-out: P. falciparum (IC50 μM); for Stage of parasite growth arrest / Parasites observed to be dead: 2.5 μM; for Stage of parasite growth arrest: added at ring stage, P. falciparum 3D7; for Parasites observed to be dead: synchronised ring stage culture of P. falciparum 3D7
Procedure: Benzothiophene carboxamide derivatives of the present invention were checked for their anti-parasitic activity against 3D7 (chloroquine sensitive strain) in an in vitro culture. […] To find out parasite stage where these compounds act, synchronised ring stage culture of P. falciparum was treated with 2.5 μM concentration of compounds 6 and 7. […] When compounds 6 and 7 were added at the trophozoite stage the cells could not proceed to the schizont stage indicating the growth inhibition occurs at trophozoite stage.
Synchronised culture of P. falciparum 3D7 was treated with 2.5 μM compound 10 and 11 at the ring stage.

[3] = target: T1, purified PfENR (Plasmodium falciparum, UniProt Q9BH77); assay: PfENR inhibition, standard enzyme assay; assay type: biochemical
T1 sequence (Q9BH77 22-432): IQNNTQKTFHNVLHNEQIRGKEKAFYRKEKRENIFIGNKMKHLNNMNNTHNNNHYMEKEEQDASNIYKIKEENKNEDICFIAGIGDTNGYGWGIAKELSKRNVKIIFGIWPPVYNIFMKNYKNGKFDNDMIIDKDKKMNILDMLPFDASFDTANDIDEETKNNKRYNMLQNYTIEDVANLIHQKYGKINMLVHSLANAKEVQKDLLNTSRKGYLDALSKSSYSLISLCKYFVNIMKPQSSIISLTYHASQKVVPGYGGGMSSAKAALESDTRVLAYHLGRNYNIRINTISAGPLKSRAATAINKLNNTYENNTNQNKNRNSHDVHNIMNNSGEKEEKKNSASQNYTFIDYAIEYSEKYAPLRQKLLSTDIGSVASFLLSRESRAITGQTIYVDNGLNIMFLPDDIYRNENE
Procedure: (§1) PfENR activity was determined using standard assay described earlier.

[4] = Tail flick latency test; settings: 15 mg/kg b. wt. vs Ibuprofen 50 mg/kg b. wt., 30 min and 60 min post injection
Procedure: Hot plate latency test was performed under red light on the metal surface of hot plate analgesia meter (IITC, Life science, CA). Animals were placed individually on the surface of hot plate maintained at a constant temperature 54±1° C. The anti-nociceptive response was latency recorded from the time when animal was placed on the heated surface until the behavior response show licking of hind paw to avoid thermal nociception. A maximum hot plate latency of 30 sec was used for each animal to prevent paw tissue damage. Base line nociceptive latency was obtained for each animal prior to any drug administration. Thereafter, groups of animals were treated with different concentration of different derivatives of benzothiophene and well known NSAIDs. […] Subsequent nociceptive response latency for each animal was determined at 30 and 60 min after drug administration. […] In continuation of tail flick latency assay, the anti-nociceptive effect of the compounds was monitored. Rats treated as described above were subjected to determination of thermal nociceptive pain. Rats were confined in restrainer and allowed to accommodate. The tail withdrawal test consisted of immersing the posterior 8-10 cm of the tail in hot water bath maintained at 54±1° C. Withdrawal latency for tail flicking was measured. A maximum tail flick latency of 20 sec was permitted to minimize tissue damage.

[5] = Hot plate latency test (thermal hyperalgesia); assay type: in vivo, rats; settings: for Analgesic activity compared with Ibuprofen, hot plate: compounds 15 mg/kg b. wt. vs Ibuprofen 50 mg/kg b. wt.; for MPE index, hot plate latency assay: 15 mg/kg b. wt. i.p., 30 and 60 min; for Anti-nociceptive response, hot plate latency assay: known NSAIDs
Procedure: The animals were housed in an animal house facility of National Institute of Immunology, India, with controlled temperature (22±2° C.) under a 12/12 h light/dark cycle. They had free access to food and water ad libitum. All experiments were conducted according to the guidelines of the international association for the study of pain and approved by the institutional ethical committee for animal research. All in vivo experiments were carried out on inbred male […] rats ( 200-320 g body weight). Same age and equal body weight of animals were used according to experiments. No animals were used for more than one experiment. Most popular non-steroidal anti-inflammatory drugs which are widely use for treatment of chronic and inflammatory pain, such as Ibuprofen, Naproxen, Ketoprofen, Aspirin, Nimesulide, Indomethacine were purchased from Cayman Chemicals, USA and used to evaluate the efficacy of drugs in animal model. These drugs and different derivatives of Benzothiophene were dissolved in minimum volume of Dimethyl sulfoxide (DMSO) and further diluted in Phosphate buffer saline prior to use. […] Withdrawal latency for tail flicking was measured. […] NSAIDs is commonly evaluated by hot plate latency assay whereby animals are exposed to thermal stimulus (54 degree […] time for hind paw licking is measured as behavioural response for pain.

[6] = Mechanical hyperalgesia, Randall-Selitto, carrageenan induced; assay type: in vivo, rats; settings: 15 mg/kg b wt., after 1 hrs, basal level in 5 hrs
Procedure: Mechanical hyperalgesia was measured as hind limb withdrawal threshold in response to a mechanical stimulus applied to hind paws of rat using Randall-selitto meter, Randall and Selitto, 1957. To determine the mechanical hyperalgesia, the force was applied with increased pressure at a constant rate until the animal withdrew its limb. The base line nociceptive threshold was measured before induction of hyperalgesia. Moreover, hyperalgesia was induced by carrageenan and then groups of animal were treated with compound 4, compound 6 and compound 8 (15 mg/kg body weight) and Ibuprofen (50 mg/kg body weight). Control group was treated with physiological saline. […] The anti-nociceptive efficacy of the compounds has been evaluated the efficacy with paw withdrawal threshold latency of animals.

[7] = target: T1, purified PfENR; assay: PfENR inhibition kinetics, cofactor potency and progress curve analysis; assay type: biochemical
Procedure: as §1
The accumulation of product further decreased when compound 6 was preincubated with the enzyme (curve c). On addition of NAD+ to this reaction the rate of product accumulation further decreased (curve d).
Progress curves for inhibition by varying concentrations of compounds 6 and 7 were examined in detail (FIGS. 16a and 16b). From the progress curve analyses, it was inferred that for each concentration of the inhibitors the initial and the steady state velocity decreased exponentially with time. At higher inhibitor concentration, steady state is reached rapidly with a decrease in steady state velocity (vs). […] Progress curves were analysed using equation 3a from which a series of Kobs values were obtained for each concentration of inhibitor.

[8] = system: liver stage of Plasmodium; settings: Singh A. P. et al, IUBMB life 61, 923-928; read-out: IC50, inhibition of liver stage parasite development before invasion; cited from earlier work
[9] = Erythrocyte, growth inhibition, red blood cell stages of Plasmodium falciparum 3D7 (chloroquine sensitive)
[10] = read-out: Inhibition of PfENR (IC50 μM)
[11] = Plasmodium falciparum, 3D7, Erythrocyte

CCN(CC)CCCC(C)Nc1ccnc2cc(Cl)ccc12 (centres unmarked) [Chloroquine, reference compound]
Relative efficacy in the route of administration study [1]: more effective via intravenous and subcutaneous routes compared to oral administration
Mean Survival Days (Observed for 25 days) ([1]; Intraperitoneal): 20 ± 1.5 days
Mean Survival Days (Observed for 25 days) ([1]; Intravenous): 25 ± 2.1 days
Mean Survival Days (Observed for 25 days) ([1]; Per oral): 17 ± 1.4 days
Mean Survival Days (Observed for 25 days) ([1]; Subcutaneous): 21 ± 1.7 days

O=C(O)c1sc2ccccc2c1Br [Compound 1]
IC50 [2, 9]: 2.1 ± 0.4 µM
IC50 [3, 10]: 1.68 ± 0.045 µM

O=C(NCc1ccccc1)c1sc2ccccc2c1Br [Compound 4, N-benzyl-3-bromobenzo[b]thiophene-2-carboxamide]
Anti-nociceptive response, tail flick latency assay [4]: better anti-nociceptive response than the Ibuprofen
melting point: 115 to 117 °C
IC50 [2, 9]: 2 ± 0.5 µM
Analgesic activity compared with Ibuprofen, hot plate [5]: potent analgesic activity at much lower concentration than Ibuprofen
IC50 [3, 10]: 0.51 µM and 0.501 µM
Mechanical hyperalgesia, paw withdrawal threshold [6]: significantly reversed the mechanical hyperalgesia

COc1ccc(CNC(=O)c2sc3ccccc3c2Br)cc1 [Compound 5, N-(4-methoxybezyl)-3-bromobenzo[b]thiophene-2-carboxamide]
IC50 [2, 9]: 5.93 ± 0.3 µM
IC50 [3, 10]: 31.99 ± 0.23 µM

O=C(NCc1ccc(C(F)(F)F)cc1)c1sc2ccccc2c1Br [Compound 7, N-(4-trifluorobenzyl)-3-bromobenzo[b]thiophene-2-carboxamide]
Relative efficacy in the route of administration study [1]: comparative activity to compound 6
Mean Survival Days (Observed for 25 days) ([1]; Intraperitoneal): 21 ± 1.3 days
Mean Survival Days (Observed for 25 days) ([1]; Intravenous): 24 ± 2.1 days
Mean Survival Days (Observed for 25 days) ([1]; Per oral): 11 ± 0.9 days
Mean Survival Days (Observed for 25 days) ([1]; Subcutaneous): 15 ± 1.2 days
Anti-nociceptive response, tail flick latency assay [4]: better anti-nociceptive response than the Ibuprofen
Ki [7]: 0.0861 µM
Binding behaviour from progress curves ([7]; inhibitor 0-750 nM): slow tight binding behaviour
Isomerization rate constant (k5 * 10^−2) (s^−1) ([7]; purified PfENR, progress curves): 1.65 ± .023 10^−2 s^−1
koff ([7]; read-out: Dissociation rate constant (k6* 10^−3) (s^−1)): 0.0069 ± 3e-07 s⁻¹
Stage of parasite growth arrest [2]: arrested at the trophozoite stage
Parasites observed to be dead [2]: ~90%
IC50 [2, 11]: 1.18 ± 0.2 µM
IC50 ([3]; Inhibition of PfENR (IC50 μM)): 0.463 ± 0.1 µM

O=C(NCCc1ccccc1)c1sc2ccccc2c1Br [Compound 8, 3-bromo-N-(2-phenylethyl)-benzo[b]thiophene-2-carboxamide]
Anti-nociceptive response, tail flick latency assay [4]: better anti-nociceptive response than the Ibuprofen
IC50 [2, 9]: 2.46 ± 0.7 µM
Analgesic activity compared with Ibuprofen, hot plate [5]: potent analgesic activity at much lower concentration than Ibuprofen
IC50 [3, 10]: 54.98 ± 0.42 µM
Mechanical hyperalgesia, paw withdrawal threshold [6]: significantly reversed the mechanical hyperalgesia

O=C(NCc1cccc2ccccc12)c1sc2ccccc2c1Br [Compound 9, 3-bromo-N-(naphthalen-1-ylmethyl)-benzo[b]thiophene-2-carboxamide]
Anti-nociceptive response, tail flick latency assay [4]: better anti-nociceptive response than the Ibuprofen
IC50 [2, 9]: 2.45 ± 0.9 µM
IC50 [3, 10]: 52.56 ± 0.33 µM

C=CCN(Cc1ccc(F)cc1)C(=O)c1sc2ccccc2c1Br [Compound 10, 3-bromo-N-(4-fluorobenzyl)-N-(prop-2-en-1-yl)-benzo[b]thiophene-2-carboxamide]
Mean Survival Days (Observed for 25 days) ([1]; Intraperitoneal): 11 ± 0.8 days
Mean Survival Days (Observed for 25 days) ([1]; Intravenous, 5 mg/kg): 15 days and 15 ± 0.7 days
Mean Survival Days (Observed for 25 days) ([1]; Per oral): 7 ± 1.2 days
Mean Survival Days (Observed for 25 days) ([1]; Subcutaneous): 12 ± 1.6 days
Stage of parasite growth arrest [2]: arrested after 48 hours at the trophozoite stage
Parasites observed to be dead [2]: 40%
IC50 [2, 9]: 2.93 ± 1.2 µM
MPE index, hot plate latency assay [5]: less latency in comparison to other derivatives
IC50 [3, 10]: 51.98 ± 0.43 µM

C=CCN(Cc1ccc(C(F)(F)F)cc1)C(=O)c1sc2ccccc2c1Br [Compound 11, 3-bromo-N-(prop-2-en-1-yl)-N-[4-(trifluoromethyl)benzyl]-1-benzo[b]thiophene-2-carboxamide]
Mean Survival Days (Observed for 25 days) ([1]; Intraperitoneal, 5 mg/kg): 10 ± 1.2 days
Mean Survival Days (Observed for 25 days) ([1]; Intraperitoneal, listed as compound 11, 5 mg/kg): 10 days
Mean Survival Days (Observed for 25 days) ([1]; Intravenous, 5 mg/kg): 16 ± 1.5 days
Mean Survival Days (Observed for 25 days) ([1]; Intravenous, listed as compound 11, 5 mg/kg): 16 days
Mean Survival Days (Observed for 25 days) ([1]; Per oral): 7 ± .6 days
Mean Survival Days (Observed for 25 days) ([1]; Subcutaneous, 5 mg/kg): 14 ± 1.2 days
Mean Survival Days (Observed for 25 days) ([1]; Subcutaneous, listed as compound 11, 5 mg/kg): 14 days
Stage of parasite growth arrest [2]: arrested after 48 hours at the trophozoite stage
Parasites observed to be dead [2]: around 70%
IC50 [2, 9]: 1.3 ± 0.1 µM
MPE index, hot plate latency assay [5]: less latency in comparison to other derivatives
IC50 [3, 10]: 52.48 ± 0.22 µM

CC(C)Cc1ccc(C(C)C(=O)O)cc1 (centres unmarked) [Ibuprofen, reference compound]
Anti-nociceptive response, hot plate latency assay ([5]; 50 mg/kg b. wt., 60 minutes post administration): better anti-nociceptive effect compared to other NSAIDs
Anti-nociceptive response, hot plate latency assay ([5]; 30 minutes post administration, wistar rats): better anti-nociceptive drug as compared to other NSAIDs

Oc1cc(Cl)ccc1Oc1ccc(Cl)cc1Cl [Triclosan, reference compound]
IC50 [8]: 6.8 µM
IC50 [2, 11]: 0.8 ± 0.1 µM
